Here are results for 1 molecule from patent US5026554A, “Method of inhibiting fungal growth using squalene synthetase inhibitors” (Merck & Co., Inc., priority 1990, dated 1991).

One test addresses T1, Squalene Synthetase (Rattus norvegicus, UniProt Q02769).
T1 construct: from tissue; host or cells: liver microsomes of male Charles River CD rats fed 0.1% lovastatin
T1 sequence (Q02769 1-416): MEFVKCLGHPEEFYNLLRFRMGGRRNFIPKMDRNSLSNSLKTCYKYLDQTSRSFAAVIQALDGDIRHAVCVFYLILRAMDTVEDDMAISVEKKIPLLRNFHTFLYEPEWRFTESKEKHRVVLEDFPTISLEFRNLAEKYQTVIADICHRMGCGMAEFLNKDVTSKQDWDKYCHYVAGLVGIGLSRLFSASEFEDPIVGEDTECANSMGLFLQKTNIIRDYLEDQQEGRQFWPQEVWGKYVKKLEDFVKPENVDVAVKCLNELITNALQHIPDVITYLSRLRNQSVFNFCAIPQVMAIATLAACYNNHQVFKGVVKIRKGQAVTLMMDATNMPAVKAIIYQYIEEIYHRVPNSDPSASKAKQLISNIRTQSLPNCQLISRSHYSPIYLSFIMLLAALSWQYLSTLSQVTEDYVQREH
As to the kind of experiment: Squalene Synthetase Assay (intrinsic squalene synthetase inhibitory activity). It is filed as biochemical. To be noted: rat liver microsomes, [4-14C]farnesyl-pyrophosphate, 30° C., 20 minutes. The procedure:
The intrinsic squalene synthetase inhibitory activity of representative compounds of this invention was measured by the standard in vitro protocol described below:
Male, Charles River CD rats (120 to 150 g) were fed a diet containing 0.1% lovastatin for 4 days. The livers from these rats were homogenized in 5 volumes (ml/g) of ice cold 50 mM HEPES (4-(2-hydroxyethyl)-1-piperazine-ethanesulfonic acid), 5 mM EDTA(ethylenediaminetetraacetic acid) pH 7.5 with a Potter-Elvehjem type tissue grinder. The homogenate was centrifuged twice at 20,000×g for 15 minutes at 4° C., discarding the pellet each time. The supernatant was then centrifuged at 100,000×g for 1 hour at 4° C. The resulting microsomal pellet was resuspended in a volume of the above homogenizing buffer equal to one-fifth the volume of the original homogenate. This microsomal preparation has a protein concentration of about 7 mg/ml. The microsomal suspensions were stored in aliquots at -70° C. Squalene synthetase activity in these aliquots is stable for at least several months.
Prenyl transferase was purified to use in the enzymatic synthesis of radiolabelled farnesyl pyrophosphate. Prenyl transferase was assayed by the method of Rilling (Methods in Enzymology 110, 125-129 (1985)) and a unit of activity is defined as the amount of enzyme that will produce 1 μ mole of farnesyl pyrophosphate per minute at 30° C. in the standard assay. […]
(Liver microsomes are vesicles of endoplasmic reticulum, rich in cytochrome P450 enzymes.)

The subject of the next test is A. nidulans R21. As to the kind of experiment: antifungal MIC, microtiter dilution assay, filamentous fungi. It counts as cell-based. As to conditions: Aspergillus nidulans, 42 hours, 28° C., read-out: Minimum Inhibitory Concentration. The procedure: (§1) The compounds are particularly active towards filamentous fungi and yeasts including Candida albicans and Cryptococcus neoformans. The sensitivity of filamentous fungi and yeast was determined using inhibitor dilution assays in microtiter format. The compounds were dissolved in DMSO at 2 mg/ml and serially diluted in 0.1M phosphate buffer, pH 7.0 in the microtiter dish from 100 to 0.006 μg/ml. A standardized spore suspension for testing the filamentous fungi was prepared by inoculating Antibiotic Medium #3 containing 1.5% agar with spores such that 1.5×10^3 colony forming units were added per well. The microtiter wells were filled with 50 μl of buffer containing compound and 50 μl of inoculated medium.
(§2) The sensitivity of yeasts was determined by inoculating yeast nitrogen base containing 1% dextrose (YNB/G) with aliquots of an overnight yeast culture grown in Yeast Morphology (YM) media at 35° C. and diluting in YNB/G to yield a final concentration of 1.5-7.5×10^3 colony forming units/well. To test the sensitivity of yeast, compound was solubilized in 10 percent aqueous DMSO at 2.56 mg/ml. The compound was diluted serially in YNB/G from 128 to 0.06 μg/ml and further diluted 1:10 in YNB/G. The wells were filled with 150 μl of media containing drug. […]

The next test relates to Aspergillus flavus MF383. The test is described as above. It counts as cell-based. As to conditions: 42 hours, 28° C., read-out: Minimum Inhibitory Concentration. The protocol:
as §1, §2

The subject of another test is C. parapsilosis MY1010. As to the kind of experiment: antifungal MIC, microtiter dilution assay, yeast. It is filed as cell-based. To be noted: Lodderomyces parapsilosis, YNB/G, 24 to 48 hours, 35° C., read-out: Minimum Inhibitory Concentration. The protocol: as §1
(§3) The sensitivity of yeasts was determined by inoculating yeast nitrogen base containing 1% dextrose (YNB/G) with aliquots of an overnight yeast culture grown in Yeast Morphology (YM) media at 35° C. and diluting in YNB/G to yield a final concentration of 1.5-7.5×10^3 colony forming units/well. To test the sensitivity of yeast, compound was solubilized in 10 percent aqueous DMSO at 2.56 mg/ml. The compound was diluted serially in YNB/G from 128 to 0.06 μg/ml and further diluted 1:10 in YNB/G. The wells were filled with 150 μl of media containing drug. The minimum inhibitory concentration (MIC) is defined as the lowest concentration to prevent growth after an incubation for 42 hours, at 28° C. for the filamentous fungi and 24 to 48 hours, at 35° C. for the yeasts. Representative of the antifungal activity are the minimum inhibitory concentration data shown below.

Another test relates to C. tropicalis MY1012. Nature of the test: antifungal MIC, microtiter dilution assay, yeast. It is filed as cell-based. To be noted: Candida tropicalis, YNB/G, 24 to 48 hours, 35° C., read-out: Minimum Inhibitory Concentration. The procedure: as §1, §3
A further test deals with Candida albicans MY1055. Nature of the test: antifungal MIC, microtiter dilution assay, yeast. To be noted: YNB/G, 24 to 48 hours, 35° C., read-out: Minimum Inhibitory Concentration. It counts as cell-based. The procedure: as §1, §3
The subject of the next test is Crypt. neoformans MY1051. Nature of the test: antifungal MIC, microtiter dilution assay, yeast. It counts as cell-based. To be noted: Cryptococcus neoformans, YNB/G, 24 to 48 hours, 35° C., read-out: Minimum Inhibitory Concentration. The protocol: as §1, §3

Values after ≈ are worked out from the molar mass of the structure shown.

Consider `CC(=O)OC(CCCC12OC(C(=O)O)C(O)(C(=O)O)C(C(=O)O)(O1)C(OC(=O)CCC=CC(C)CCCc1ccccc1)C2O)C(C)Cc1ccccc1` (stereo not shown) [Compound A], for which the IC50 (usually the concentration that inhibits the measured activity by half) against Squalene Synthetase came to 9 nM. For the same molecule, the MIC in the test on A. nidulans R21 is 1.5 µg/mL (≈ 1.99 µM); in the test on Aspergillus flavus MF383, 1.5 µg/mL (≈ 1.99 µM); in the test with C. parapsilosis MY1010, 8 µg/mL (≈ 10.6 µM); in the test on C. tropicalis MY1012 it was 8 µg/mL (≈ 10.6 µM); with Candida albicans MY1055, 16 µg/mL (≈ 21.2 µM); in the test on Crypt. neoformans MY1051, 1 µg/mL (≈ 1.32 µM).
